In US12503436B2, “Compounds and compositions for treating conditions associated with STING activity” (NOVARTIS PHARMA AG, priority 2021, dated 2025):

Molecular target: STING (Homo sapiens, UniProt Q86WV6, G230A/H232R/R293Q/R71H)
Experiment: STING reporter assay in THP1-Dual KO-IFNAR2 cells (2′3′cGAMP stimulation, luciferase reporter)
Format: cell-based
Conditions: 15 μM 2′3′cGAMP stimulation, 24 h, read-out: Pharmaron, THP1_IFNAR2 STING 24 h Luci Normalized: GeoMean EC50
Description: STING pathway activation by the compounds described herein was measured using THP1-Dual™ cells (KO-IFNAR2).
THP1-Dual™ KO-IFNAR2 Cells (obtained from InvivoGen) were maintained in RPMI, 10% FCS, 5 ml P/S, 2 mM L-glut, 10 mM Hepes, and 1 mM sodium pyruvate. Compounds were spotted in empty 384 well tissue culture plates (Greiner 781182) by Echo for a final concentration of 0.0017-100 μM. Cells were plated into the TC plates at 40 μL per well, 2×10E6 cells/mL. For activation with STING ligand, 2′3′cGAMP (MW 718.38, obtained from Invivogen), was prepared in Optimem media.
The following solutions were prepared for each 1×384 plate: • Solution A: 2 mL Optimem with one of the following stimuli: • 60 μL of 10 mM 2′3′cGAMP→150 μM stock • Solution B: 2 mL Optimem with 60 μL Lipofectamine 2000→Incubate 5 min at RT
2 mL of solution A and 2 ml Solution B was mixed and incubated for 20 min at room temperature (RT). 20 μL of transfection solution (A+B) was added on top of the plated cells, with a final 2′3′cGAMP concentration of 15 μM. The plates were then centrifuged immediately at 340 g for 1 minute, after which they were incubated at 37° C., 5% CO2, >98% humidity for 24 h. Luciferase reporter activity was then measured. EC50 values were calculated by using standard methods known in the art.
Luciferase reporter assay: 10 μL of supernatant from the assay was transferred to white 384-plate with flat bottom and squared wells. One pouch of QUANTI-Luc™ Plus was dissolved in 25 mL of water. 100 μL of QLC Stabilizer per 25 mL of QUANTI-Luc™ Plus solution was added. 50 μL of QUANTI-Luc™ Plus/QLC solution per well was then added. Luminescence was measured on a Platereader (e.g., Spectramax I3X (Molecular Devices GF3637001)).
Luciferase reporter activity was then measured. EC50 values were calculated by using standard methods known in the art.

STING, sequence (Q86WV6 whole entry R71H/G230A/H232R/R293Q): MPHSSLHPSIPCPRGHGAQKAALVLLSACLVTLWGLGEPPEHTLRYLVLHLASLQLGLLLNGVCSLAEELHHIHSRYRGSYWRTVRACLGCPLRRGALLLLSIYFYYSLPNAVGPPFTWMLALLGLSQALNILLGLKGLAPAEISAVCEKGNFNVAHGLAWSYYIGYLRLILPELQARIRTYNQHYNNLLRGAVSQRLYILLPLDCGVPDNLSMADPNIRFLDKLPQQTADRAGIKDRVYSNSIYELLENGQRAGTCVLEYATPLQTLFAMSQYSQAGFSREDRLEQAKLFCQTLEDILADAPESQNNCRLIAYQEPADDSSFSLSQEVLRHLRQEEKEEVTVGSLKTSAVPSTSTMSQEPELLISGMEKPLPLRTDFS

EC50 | Compound
200 to 1000 nM | CC1(C)OC(C)(C)C1C(=O)Nc1c[nH]c2ccc(OCc3ccc(C(F)(F)F)cc3)cc12 [Compound 496, 2,2,4,4-tetramethyl-N-(5-((4-(trifluoromethyl)benzyl)oxy)-1H-indol-3-yl)oxetane-3-carboxamide]
5000 to 100000 nM | CC(=O)Nc1c[nH]c2ccc(OC[C@@H]3[C@H]4CN(CC(F)(F)F)C[C@@H]34)cc12 [Compound 120, N-(5-(((1R,5S,6r)-3-(2,2,2-trifluoroethyl)-3-azabicyclo[3.1.0]hexan-6-yl)methoxy)-1H-indol-3-yl)acetamide]
5000 to 100000 nM | CC(=O)Nc1c[nH]c2ccc(CC(Cc3ccc(C(F)(F)F)cc3)C(=O)O)cc12 (centres unmarked) [Compound 532, 3-(3-acetamido-1H-indol-5-yl)-2-(4-(trifluoromethyl)benzyl)propanoic acid]
5000 to 100000 nM | CC(=O)Nc1c[nH]c2ccc(OCCc3cnn(C(F)F)c3)cc12 [Compound 385, N-(5-(2-(1-(difluoromethyl)-1H-pyrazol-4-yl)ethoxy)-1H-indol-3-yl)acetamide]
200 to 1000 nM | O=C(Nc1c[nH]c2ccc(OCCc3ccc(C(F)(F)F)cc3)cc12)C1CC(F)(F)C1 [Compound 249, 3,3-difluoro-N-(5-(4-(trifluoromethyl)phenethoxy)-1H-indol-3-yl)cyclobutane-1-carboxamide]
5000 to 100000 nM | CC1(C(=O)Nc2c[nH]c3ccc(OCc4ccc(C(F)(F)F)cc4)cc23)CCNCC1 [Compound 528, 4-methyl-N-(5-((4-(trifluoromethyl)benzyl)oxy)-1H-indol-3-yl)piperidine-4-carboxamide]
5000 to 100000 nM | CC(=O)Nc1c(Br)[nH]c2ccc(OCCc3ccc(C(F)(F)F)cc3)cc12 [Compound 402, N-(2-bromo-5-(4-(trifluoromethyl)phenethoxy)-1H-indol-3-yl)acetamide]
1000 to 5000 nM | CC(=O)Nc1c[nH]c2ccc(OCCC34CC(C3)C4)cc12 [Compound 458, N-(5-(2-(bicyclo[1.1.1]pentan-1-yl)ethoxy)-1H-indol-3-yl)acetamide]
200 to 1000 nM | C[C@H]1C[C@H](C(=O)Nc2c[nH]c3ccc(CCOc4ccc(C(F)(F)F)cc4)cc23)C1 [Compound 392, trans-3-methyl-N-(5-(2-(4-(trifluoromethyl)phenoxy)ethyl)-1H-indol-3-yl)cyclobutane-1-carboxamide]
200 to 1000 nM | N#CC1(C(=O)Nc2c[nH]c3ccc(OCC[C@@H]4C[C@@H]5CN(CC(F)(F)F)C[C@@H]5C4)cc23)CC1 [Compound 370, 1-cyano-N-(5-(2-((3aR,5r,6aS)-2-(2,2,2-trifluoroethyl)octahydrocyclopenta[c]pyrrol-5-yl)ethoxy)-1H-indol-3-yl)cyclopropane-1-carboxamide]
200 to 1000 nM | cis-3-hydroxy-N-(5-(2-((3aR,5r,6aS)-2-(2,2,2-trifluoroethyl)octahydrocyclopenta[c]pyrrol-5-yl)ethoxy)-1H-indol-3-yl)cyclobutane-1-carboxamide [Compound 344]
1000 to 5000 nM | O=C(Nc1c[nH]c2ccc(CCc3ccc(C(F)(F)F)cc3)cc12)C1CCC1 [Compound 141, N-(5-(4-(trifluoromethyl)phenethyl)-1H-indol-3-yl)cyclobutanecarboxamide]
200 to 1000 nM | CC1(C)CC(C(=O)Nc2c[nH]c3ccc(OCC[C@@H]4C[C@@H]5CN(CC(F)(F)F)C[C@@H]5C4)cc23)C1 [Compound 346, 3,3-dimethyl-N-(5-(2-((3aR,5r,6aS)-2-(2,2,2-trifluoroethyl)octahydrocyclopenta[c]pyrrol-5-yl)ethoxy)-1H-indol-3-yl)cyclobutane-1-carboxamide]
5000 to 100000 nM | CC(=O)Nc1c[nH]c2ccc(CCOc3ccc(Cl)nc3C)cc12 [Compound 556, N-(5-(2-((6-chloro-2-methylpyridin-3-yl)oxy)ethyl)-1H-indol-3-yl)acetamide]
40 to 200 nM | CC1(C(=O)Nc2c[nH]c3ccc(CCOc4ccc(C(F)(F)F)cc4)cc23)CCC1 [Compound 309, 1-methyl-N-(5-(2-(4-(trifluoromethyl)phenoxy)ethyl)-1H-indol-3-yl)cyclobutane-1-carboxamide]
200 to 1000 nM | O=C(Nc1c[nH]c2ccc(CCOc3ccc(C(F)(F)F)cc3)cc12)C1COC1 [Compound 164, N-(5-(2-(4-(trifluoromethyl)phenoxy)ethyl)-1H-indol-3-yl)oxetane-3-carboxamide]
200 to 1000 nM | CC(=O)Nc1c[nH]c2ccc(CCOc3ccccc3OCC(F)(F)F)cc12 [Compound 547, N-(5-(2-(2-(2,2,2-trifluoroethoxy)phenoxy)ethyl)-1H-indol-3-yl)acetamide]
200 to 1000 nM | CC(=O)Nc1c[nH]c2ccc(CCC3CCN(CC(F)(F)F)CC3)cc12 [Compound 114, N-(5-(2-(1-(2,2,2-trifluoroethyl)piperidin-4-yl)ethyl)-1H-indol-3-yl)acetamide]
200 to 1000 nM | CC1(F)CC(C(=O)Nc2c[nH]c3ccc(OCC[C@@H]4C[C@@H]5CN(CC(F)(F)F)C[C@@H]5C4)cc23)C1 (stereo partly drawn) [Compound 151, 3-fluoro-3-methyl-N-(5-(2-((3aR,5r,6aS)-2-(2,2,2-trifluoroethyl)octahydrocyclopenta[c]pyrrol-5-yl)ethoxy)-1H-indol-3-yl)cyclobutane-1-carboxamide]

Compound | EC50
CC1(C(=O)Nc2c[nH]c3ccc(O[C@H]4C[C@@H](c5ccc(C(F)(F)F)cc5)C4)cc23)CCOCC1 [Compound 363, 4-methyl-N-(5-(cis-3-(4-(trifluoromethyl)phenyl)cyclobutoxy)-1H-indol-3-yl)tetrahydro-2H-pyran-4-carboxamide] | 200 to 1000 nM
CC1(C(=O)Nc2c[nH]c3ccc(O[C@H]4C[C@H](c5ccc(C(F)(F)F)cc5)C4)cc23)COC1 [Compound 148, 3-methyl-N-(5-(trans-3-(4-(trifluoromethyl)phenyl)cyclobutoxy)-1H-indol-3-yl)oxetane-3-carboxamide] | 200 to 1000 nM
N#C[C@H]1C[C@@H]1C(=O)Nc1c[nH]c2ccc(O[C@H]3C[C@H](c4ccc(C(F)(F)F)cc4)C3)cc12 [Compound 562, (1s,2s)-2-cyano-N-(5-((trans)-3-(4-(trifluoromethyl)phenyl)cyclobutoxy)-1H-indol-3-yl)cyclopropane-1-carboxamide] | 200 to 1000 nM
CC1(C)CC1C(=O)Nc1c[nH]c2ccc(O[C@H]3C[C@@H](c4ccc(C(F)(F)F)cc4)C3)cc12 (stereo partly drawn) [Compound 359, 2,2-dimethyl-N-(5-(cis-3-(4-(trifluoromethyl)phenyl)cyclobutoxy)-1H-indol-3-yl)cyclopropane-1-carboxamide] | 40 to 200 nM
CC(C)(C)CC(=O)Nc1c[nH]c2ccc(O[C@H]3C[C@@H](c4ccc(C(F)(F)F)cc4)C3)cc12 [Compound 157, 3,3-dimethyl-N-(5-(cis-3-(4-(trifluoromethyl)phenyl)cyclobutoxy)-1H-indol-3-yl)butanamide] | 40 to 200 nM
CC(=O)Nc1c[nH]c2ccc(CO[C@H]3C[C@@H](c4ccc(C(F)(F)F)cc4)C3)cc12 [Compound 500, N-(5-((cis-3-(4-(trifluoromethyl)phenyl)cyclobutoxy)methyl)-1H-indol-3-yl)acetamide] | 40 to 200 nM
O=C(Nc1c[nH]c2ccc(O[C@H]3C[C@@H](c4ccc(C(F)(F)F)cc4)C3)cc12)C1CC1(F)Cl (stereo partly drawn) [Compound 575, 2-chloro-2-fluoro-N-(5-(cis-3-(4-(trifluoromethyl)phenyl)cyclobutoxy)-1H-indol-3-yl)cyclopropane-1-carboxamide] | 200 to 1000 nM
